For 14 compounds, IC50 and EC50 results are on record in patent US11440923B2, “Substituted macrocyclic indole derivatives” (Bayer Aktiengesellschaft, priority 2017, dated 2022).

Counter-ions that a name gives are not always drawn.

One may read the IC50 as the concentration at which inhibition is half-maximal. What is called EC50 is the concentration needed to bring the measured effect to its halfway point.

One assay deals with BCL-XL (Homo sapiens (Human), UniProt Q07817). As to the kind of experiment: Protein-protein interaction assay BCL-XL/Bad BH3 peptide (BCL-XL assay, TR-FRET). Format: binding. The note with it: read-out: BCL-XL Assay IC50 (median). The gist of the method: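 TR-FRET competition: 1 nM His-tagged human BCL-XL (1-212) versus 1 nM biotin-PEG Bad BH3 peptide tracer, buffer 50 mM Tris pH 7, NaCl, KF, DTT. Compound preincubated with protein 10 min at 22 °C; read after 1 h at 22 °C plus overnight at 4 °C. IC50 by 4-parameter regression of normalized ratios.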
BCL-XL, sequence (Q07817 1-212): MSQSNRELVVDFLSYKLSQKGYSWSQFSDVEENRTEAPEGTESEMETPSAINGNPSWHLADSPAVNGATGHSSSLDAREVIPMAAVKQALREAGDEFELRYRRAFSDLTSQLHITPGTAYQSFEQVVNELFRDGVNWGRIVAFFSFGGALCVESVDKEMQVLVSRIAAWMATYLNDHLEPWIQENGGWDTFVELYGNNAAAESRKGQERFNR
A general note: Time-resolved FRET reads energy transfer from a long-lived donor to a nearby acceptor.

In assay [1] the test system is SUDHL5 cells. As to the kind of experiment: Induction of cytotoxicity in SUDHL5 cells (Assay 6). Format: cell-based. The note with it: Homo sapiens, SU-DHL-5, 5 h, 5 h, CellTiter-Glo; read-out: Cytotox SUDHL5 IC50 (median). A digest of the protocol: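 Run alongside apoptosis measurements, this cytotoxicity readout used cells treated with compound for 5 h at 37 °C and quantified ATP-based luminescence with CellTiter-Glo.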
(In general: Cellular ATP, detected with luciferase, serves as a proxy for viable cell number.)

The next assay relates to HMC-1-8 cells. Description: Antiproliferation assay HMC-1-8 (Assay 7). The note with it: 72 h, CellTiter-Glo, read-out: Antiproli HMC-1-8 IC50 median. Format: cell-based. The gist of the method: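 Using a parallel time-zero plate as baseline, the anti-proliferative effect was assessed by CellTiter-Glo after 72 h compound incubation at 37 °C. IC50 was computed from day 0 and DMSO control values.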

Assay [2] concerns SUDHL5 cells. As to the kind of experiment: Induction of caspase-3/7 activity in SUDHL5 cells (Assay 4). The note with it: Homo sapiens, SU-DHL-5, 3 h, caspase-3/7 induction, 3 h; read-out: Caspase SUDHL5 EC50 (median). Format: cell-based. A digest of the protocol:
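Read-out: Caspase-Glo 3/7 luminescence (1 h, 37 °C) after cells, plated overnight, were treated with compounds for 3 h at 37 °C. Signal corrected for cell-free medium background and expressed relative to DMSO control mean.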

For the compound `Cc1c2c(nn1C)C(CCN1CCOCC1)OCCCCn1c(C(=O)O)c(CCCOc3cccc4cc(F)ccc34)c3ccc(Cl)c-2c31` (racemic) [Example 16, (rac)-4-chloro-7-{3-[(6-fluoronaphthalen-1-yl)oxy]propyl}-2,3-dimethyl-15-[2-(morpholin-4-yl)ethyl]-2,10,11,12,13,15-hexahydropyrazolo[4′,3′:9,10][1,6]oxazacycloundecino[8,7,6-hi]indole-8-carboxylic Acid], the values for the half-inhibitory concentration (IC50) on BCL-XL, in the assay with SUDHL5 cells [1] and in the assay with HMC-1-8 cells were more than 20 µM, 0.019 µM and 0.322 µM, respectively. In addition, the EC50 in the assay on SUDHL5 cells [2] came out at 0.0068 µM.

For `CCc1c2c(nn1C)C(CCN1CCOCC1)OCCCCn1c(C(=O)O)c(CCCOc3cccc4cc(F)ccc34)c3ccc(Cl)c-2c31` (racemic) [Example 22, (rac)-4-chloro-3-ethyl-7-{3-[(6-fluoronaphthalen-1-yl)oxy]propyl}-2-methyl-15-[2-(morpholin-4-yl)ethyl]-2,10,11,12,13,15-hexahydropyrazolo[4′,3′:9,10][1,6]oxazacycloundecino[8,7,6-hi]indole-8-carboxylic Acid], the IC50 was more than 20 µM at BCL-XL, 0.011 µM in the assay with SUDHL5 cells [1] and 0.279 µM with HMC-1-8 cells. Moreover, the EC50 with SUDHL5 cells [2] stood at 0.01 µM.

In the case of `CCC1OCCCCn2c(C(=O)O)c(CCCOc3cccc4ccccc34)c3ccc(Cl)c(c32)-c2c1nn(C)c2C` (racemic) [Example 25, (rac)-4-chloro-15-ethyl-2,3-dimethyl-7-{3-[(naphthalen-1-yl)oxy]propyl}-2,10,11,12,13,15-hexahydropyrazolo[4′,3′:9,10][1,6]oxazacycloundecino[8,7,6-hi]indole-8-carboxylic Acid], the IC50 on BCL-XL was more than 20 µM; with SUDHL5 cells [1], 2.8 µM; in the assay with HMC-1-8 cells, 12.9 µM. Also, the EC50 in the assay with SUDHL5 cells [2] is 2 µM.

On to `Cc1c2c(nn1C)C(CCO)OCCCCn1c(C(=O)O)c(CCCOc3cccc4ccccc34)c3ccc(Cl)c-2c31` (racemic) [Example 26, (rac)-4-chloro-15-(2-hydroxyethyl)-2,3-dimethyl-7-{3-[(naphthalen-1-yl)oxy]propyl}-2,10,11,12,13,15-hexahydropyrazolo[4′,3′:9,10][1,6]oxazacycloundecino[8,7,6-hi]indole-8-carboxylic Acid], for which the IC50 is more than 20 µM on BCL-XL, 0.4 µM in the assay with SUDHL5 cells [1] and 6.78 µM with HMC-1-8 cells. Also, the EC50 in the assay on SUDHL5 cells [2] was 0.12 µM.

`CCc1c2c(nn1C)C(C(F)(F)F)OCCCCn1c(C(=O)O)c(CCCOc3cccc4ccccc34)c3ccc(Cl)c-2c31` (racemic) [Example 27, (rac)-4-Chloro-3-ethyl-2-methyl-7-{3-[(naphthalen-1-yl)oxy]propyl}-15-(trifluoromethyl)-2,10,11,12,13,15-hexahydropyrazolo[4′,3′:9,10][1,6]oxazacycloundecino[8,7,6-hi]indole-8-carboxylic Acid]: the IC50 at BCL-XL is more than 20 µM; in the assay with SUDHL5 cells [1] it was 1.9 µM; with HMC-1-8 cells, 20.7 µM. Besides, the EC50 in the assay on SUDHL5 cells [2] was found to be 3.2 µM.

As for `Cc1c2c(nn1C)C(C1CC1)OCCCCn1c(C(=O)O)c(CCCOc3cccc4ccccc34)c3ccc(Cl)c-2c31` (racemic) [Example 28, (rac)-4-Chloro-15-cyclopropyl-2,3-dimethyl-7-{3-[(naphthalen-1-yl)oxy]propyl}-2,10,11,12,13,15-hexahydropyrazolo[4′,3′:9,10][1,6]oxazacycloundecino[8,7,6-hi]indole-8-carboxylic Acid], the IC50 worked out at 19.8 µM at BCL-XL, 3 µM with SUDHL5 cells [1] and 20.8 µM in the assay on HMC-1-8 cells. For the same compound, in the assay on SUDHL5 cells [2], the EC50 worked out at 2.8 µM.

In the case of `COCCC1OCCCCn2c(C(=O)O)c(CCCOc3cccc4ccccc34)c3ccc(Cl)c(c32)-c2c1nn(C)c2C` (racemic) [Example 37, (rac)-4-chloro-(15-rac)-(2-methoxyethyl)-2,3-dimethyl-7-{3-[(naphthalen-1-yl)oxy]propyl}-2,10,11,12,13,15-hexahydropyrazolo[4′,3′:9,10][1,6]oxazacycloundecino[8,7,6-hi]indole-8-carboxylic Acid], the results for the IC50 on BCL-XL, in the assay with SUDHL5 cells [1] and in the assay on HMC-1-8 cells were 17.1 µM, 0.39 µM and 7.45 µM, respectively. Also, in the assay on SUDHL5 cells [2], the EC50 came to 0.25 µM.

Take `CCc1c2c(nn1C)C(C1CC1)OCCCCn1c(C(=O)O)c(CCCOc3cccc4cc(F)ccc34)c3ccc(Cl)c-2c31` (racemic) [Example 38, (rac)-4-chloro-(15-rac)-cyclopropyl-3-ethyl-7-{3-[(6-fluoronaphthalen-1-yl)oxy]propyl}-2-methyl-2,10,11,12,13,15-hexahydropyrazolo[4′,3′:9,10][1,6]oxazacycloundecino[8,7,6-hi]indole-8-carboxylic Acid]: the IC50 is more than 20 µM on BCL-XL, 1.5 µM in the assay on SUDHL5 cells [1] and 20.3 µM in the assay on HMC-1-8 cells. In addition, in the assay on SUDHL5 cells [2], the EC50 amounted to 3.6 µM.

Take `CCc1c2c(nn1C)C(CCOC)OCCCCn1c(C(=O)O)c(CCCOc3cccc4cc(F)ccc34)c3ccc(Cl)c-2c31` (racemic) [Example 41, (rac)-4-chloro-3-ethyl-7-{3-[(6-fluoronaphthalen-1-yl)oxy]propyl}-(15-rac)-(2-methoxyethyl)-2-methyl-2,10,11,12,13,15-hexahydropyrazolo[4′,3′:9,10][1,6]oxazacycloundecino[8,7,6-hi]indole-8-carboxylic Acid]: the IC50 on BCL-XL turned out to be 15 µM; in the assay on SUDHL5 cells [1], 0.17 µM; in the assay with HMC-1-8 cells, 1.31 µM. For the same compound, the concentration for a half-maximal effect (EC50) in the assay with SUDHL5 cells [2] was determined as 0.097 µM.

Turning to `CCc1c2c(nn1C)C(CCO)OCCCCn1c(C(=O)O)c(CCCOc3cccc4cc(F)ccc34)c3ccc(Cl)c-2c31` (racemic) [Example 44, (rac)-4-chloro-3-ethyl-7-{3-[(6-fluoronaphthalen-1-yl)oxy]propyl}-(15-rac)-(2-hydroxyethyl)-2-methyl-2,10,11,12,13,15-hexahydropyrazolo[4′,3′:9,10][1,6]oxazacycloundecino[8,7,6-hi]indole-8-carboxylic Acid], the values for the IC50 on BCL-XL, in the assay on SUDHL5 cells [1] and in the assay with HMC-1-8 cells were 12.5 µM, 0.14 µM and 2.63 µM, respectively. Also, the EC50 with SUDHL5 cells [2] turned out to be 0.12 µM.

Turning to `CCc1c2c(nn1C)C(CCN1CCOCC1)OCCCCn1c(C(=O)O)c(CCCOc3cccc4cc(F)ccc34)c3ccc(F)c-2c31` (racemic) [Example 49, (rac)-3-Ethyl-4-fluoro-7-{3-[(6-fluoronaphthalen-1-yl)oxy]propyl}-2-methyl-(15-rac)-[2-(morpholin-4-yl)ethyl]-2,10,11,12,13,15-hexahydropyrazolo[4′,3′:9,10][1,6]oxazacycloundecino[8,7,6-hi]indole-8-carboxylic Acid], the values for the IC50 on BCL-XL, in the assay with SUDHL5 cells [1] and in the assay on HMC-1-8 cells were more than 20 µM, 0.034 µM and 1.06 µM, respectively. The EC50 in the assay with SUDHL5 cells [2] worked out at 0.033 µM.

With `CCc1c2c(nn1C)C(CC(C)(C)O)OCCCCn1c(C(=O)O)c(CCCOc3cccc4cc(F)ccc34)c3ccc(Cl)c-2c31` (racemic) [Example 52, (rac)-4-chloro-3-ethyl-7-{3-[(6-fluoronaphthalen-1-yl)oxy]propyl}-(15-rac)-(2-hydroxy-2-methylpropyl)-2-methyl-2,10,11,12,13,15-hexahydropyrazolo[4′,3′:9,10][1,6]oxazacycloundecino[8,7,6-hi]indole-8-carboxylic Acid], the IC50 at BCL-XL worked out at 14.7 µM; in the assay with SUDHL5 cells [1] it was 0.38 µM; in the assay on HMC-1-8 cells, 3.19 µM. In addition, the EC50 in the assay on SUDHL5 cells [2] amounted to 0.42 µM.

In the case of `CCc1c2c(nn1C)C(CCN1CCC(F)(F)C1)OCCCCn1c(C(=O)O)c(CCCOc3cccc4cc(F)ccc34)c3ccc(Cl)c-2c31` (racemic) [Example 55, (rac)-4-chloro-(15-rac)-[2-(3,3-difluoropyrrolidin-1-yl)ethyl]-3-ethyl-7-{3-[(6-fluoronaphthalen-1-yl)oxy]propyl}-2-methyl-2,10,11,12,13,15-hexahydropyrazolo[4′,3′:9,10][1,6]oxazacycloundecino[8,7,6-hi]indole-8-carboxylic acid—2-hydroxypropane-1,2,3-tricarboxylic Acid Salt], the results for the IC50 at BCL-XL, in the assay with SUDHL5 cells [1] and with HMC-1-8 cells were more than 20 µM, 0.041 µM and 0.172 µM, respectively. In the assay with SUDHL5 cells [2], the EC50 was 0.032 µM.

For the compound `CCc1c2c(nn1C)C(c1ccccc1)OCCCCn1c(C(=O)O)c(CCCOc3cccc4cc(F)ccc34)c3ccc(Cl)c-2c31` (racemic) [Example 59, (rac)-4-chloro-3-ethyl-7-{3-[(6-fluoronaphthalen-1-yl)oxy]propyl}-2-methyl-(15-rac)-phenyl-2,10,11,12,13,15-hexahydropyrazolo[4′,3′:9,10][1,6]oxazacycloundecino[8,7,6-hi]indole-8-carboxylic Acid], the results for the IC50 at BCL-XL, in the assay on SUDHL5 cells [1] and in the assay on HMC-1-8 cells were more than 20 µM, 0.64 µM and 3.41 µM, respectively. In the assay on SUDHL5 cells [2], the EC50 was found to be 0.43 µM.
